Results on 1 substance are retold here after patent publication US9907837B2, “Composition for preventing or treating cachexia” (GemVax & KAEL Co., Ltd., priority 2012, dated 2018).

The experiment has as its system TNF-α. Briefly: TNF-α ELISA with culture of LPS-stimulated PBMC-derived monocytes. Format: cell-based, human. Particulars: monocytes stimulated with LPS 10 ng/ml 2 hrs, starved 1 hr, 4 uM treated for 2 hrs, cell culture medium. On the procedure: PBMC (peripheral blood mononuclear cell) was separated from the blood samples (50 ml) collected from healthy subjects using Ficoll-Paque™ PLUS (GE Healthcare Life Sciences, Piscataway, N.J., USA). PBMCs were then enriched in complete RPMI 1640 medium containing 20% of human serum, followed by transferring to 100 mm polystyrene cell culture plate coated with human serum for 30 mins. […]
To investigate the effect of PEP-1 on TNF-α level in terms of protein expression level, ELISA (enzyme linked immunosorbent assay) was performed. […] After culturing, cell soup was collected, and the amount of TNF-α was measured using ELISA kit (R&D, Minneapolis, Minn., USA) as follows.
TNF measurement uses sandwich ELISA method. […] Again, plate was washed, and avidin/biotin was added for measuring the absorbance. TNF-α level of each sample was quantified using the standard graph calculated from the absorbance of standard solution.
PBMC-derived monocytes were stimulated with endotoxin LPS (10 ng/ml) for 2 hrs, starved for 1 hr using OPTI-MEM, and then 4 uM of FITC, FITC-TAT, PEP 1-FITC and FITC-PEP 1 were treated for 2 hrs. After incubation, TNF-α level was measured with cell culture medium using ELISA.

In turn, Fluorescein Isothiocyanate [FITC] returned a TNF-α level of 6.2 ng/mL.
